Patent publication US8084466B2, “Bicyclic heteroaryl-substituted imidazoles as modulators of the histamine H4 receptor” (Janssen Pharmaceutica NV, priority 2007, dated 2011)

Target: T1, human histamine H4 receptor (Homo sapiens, UniProt Q9H3N8)
T1 construct: expressed in transfected cells; host or cells: SK-N-MC cells or COS7 cells, transient transfection with pH4R; cell membranes
Experiment: Binding Assay on Recombinant Human Histamine H4 Receptor
Settings: competition binding with 3H-histamine (5 nM; KD 5 nM), membranes of SK-N-MC or COS7 cells expressing human H4 receptor; average of results; > = highest value tested
How it was run: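 Membranes from SK-N-MC or COS7 cells transiently transfected with H4R incubated 45 min at room temperature with ³H-histamine; nonspecific binding defined with 10,000 nM histamine. Filtration and scintillation counting. Ki from competition with 5 nM ³H-histamine, using a KD of 5 nM.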

T1 sequence (Q9H3N8 whole entry): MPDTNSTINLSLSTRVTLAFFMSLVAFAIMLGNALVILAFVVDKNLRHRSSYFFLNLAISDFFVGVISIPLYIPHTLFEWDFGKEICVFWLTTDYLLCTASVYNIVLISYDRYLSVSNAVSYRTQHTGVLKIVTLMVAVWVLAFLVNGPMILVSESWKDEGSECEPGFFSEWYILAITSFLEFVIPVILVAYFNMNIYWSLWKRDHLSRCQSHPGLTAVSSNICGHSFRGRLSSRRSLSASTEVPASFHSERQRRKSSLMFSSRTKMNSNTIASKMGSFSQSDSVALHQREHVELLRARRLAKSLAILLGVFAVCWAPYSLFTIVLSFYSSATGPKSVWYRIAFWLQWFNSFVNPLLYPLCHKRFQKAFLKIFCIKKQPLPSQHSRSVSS

Row | SMILES | Ki [nM]
1 | COC(=O)c1ccc2[nH]c(-c3ccc4c(c3Cl)CCN4CCCC3CCN(C)CC3)nc2c1 [Example 5, 2-{4-Chloro-1-[3-(1-methyl-piperidin-4-yl)-propyl]-2,3-dihydro-1H-indol-5-yl}-1H-benzoimidazole-5-carboxylic acid methyl ester] | 76
2 | Cc1[nH]c(-c2ccc3c(ccn3CCCN3CCN(C)CC3)c2)nc1-c1ccc(Cl)cc1 [Example 80, 5-[4-(4-Chloro-phenyl)-5-methyl-1H-imidazol-2-yl]-1-[3-(4-methyl-piperazin-1-yl)-propyl]-1H-indole] | 1980
3 | Cc1cccc2[nH]c(-c3ccc4c(c3)ncn4CCCCC3CCN(C)CC3)nc12 [Example 42, 4-Methyl-1′-[4-(1-methyl-piperidin-4-yl)-butyl]-1H,1′H-[2.5′]bibenzoimidazolyl] | 2000
4 | Cc1cc(C)c2nc(-c3cccc4c3ccn4CCCCC3CCNCC3)[nH]c2c1 [Example 139, 4,6-Dimethyl-2-[1-(4-piperidin-4-yl-butyl)-1H-indol-4-yl]-1H-benzoimidazole] | 2640
5 | Cc1cc(C)c2nc(-c3ccc4ccn(CCCCC5CCN(C)CC5)c4c3)[nH]c2c1 [Example 25, 4,6-Dimethyl-2-{1-[4-(1-methyl-piperidin-4-yl)-butyl]-1H-indol-6-yl}-1H-benzoimidazole] | 350
6 | Cc1c(F)ccc2[nH]c(-c3cccc4c3ccn4CCCCC3CCN(C)CC3)nc12 [Example 16, 5-Fluoro-4-methyl-2-{1-[4-(1-methyl-piperidin-4-yl)-butyl]-1H-indol-4-yl}-1H-benzoimidazole] | 23
7 | Cc1ccc2[nH]c(-c3ccc4c(c3)CCN4CCCC3CCNCC3)nc2c1C [Example 56, 4,5-Dimethyl-2-[1-(3-piperidin-4-yl-propyl)-2,3-dihydro-1H-indol-5-yl]-1H-benzoimidazole] | 1900
8 | Cc1cccc2[nH]c(-c3ccc4c(ccn4CCCC4CCN(C)CC4)c3)nc12 [Example 12, 4-Methyl-2-{1-[3-(1-methyl-piperidin-4-yl)-propyl]-1H-indol-5-yl}-1H-benzoimidazole] | 120
9 | COC(=O)c1ccc2nc(-c3cccc4c3c(Cl)cn4CCCCC3CCNCC3)[nH]c2c1 [Example 135, 2-[3-Chloro-1-(4-piperidin-4-yl-butyl)-1H-indol-4-yl]-3H-benzoimidazole-5-carboxylic acid methyl ester] | > 10000
10 | Cc1ccc2[nH]c(-c3cnc4c(ccn4CCCC4CCN(C)CC4)c3)nc2c1C [Example 47, 4,5-Dimethyl-2-{1-[3-(1-methyl-piperidin-4-yl)-propyl]-1H-pyrrolo[2,3-b]pyridin-5-yl}-1H-benzoimidazole] | 56
11 | Cc1c(F)ccc2[nH]c(-c3ccc4c(c3)ncn4CCCC3CCN(C)CC3)nc12 [Example 40, 5-Fluoro-4-methyl-1′-[3-(1-methyl-piperidin-4-yl)-propyl]-1H,1′H-[2,5′]bibenzoimidazolyl] | 65
12 | Cc1cccc2[nH]c(-c3ccc4c(c3)ncn4CCCCC3CCNCC3)nc12 [Example 117, 4-Methyl-1′-(4-piperidin-4-yl-butyl)-1H,1′H-[2.5′]bibenzoimidazolyl] | > 10000
13 | CN1CCC(CCCCn2ccc3c(-c4nc5c(F)cc(F)cc5[nH]4)cccc32)CC1 [Example 70, 4,6-Difluoro-2-{1-[4-(1-methyl-piperidin-4-yl)-butyl]-1H-indol-4-yl}-1H-benzoimidazole] | 102
14 | Cc1ccc2[nH]c(-c3ccc4c(c3)ncn4CCCCC3CCN(C)CC3)nc2c1C [Example 121, 4,5-Dimethyl-1′-[4-(1-methyl-piperidin-4-yl)-butyl]-1H,1′H-[2,5′]bibenzoimidazolyl] | 3000
15 | Clc1ccc2[nH]c(-c3cc4ccn(CCCC5CCNCC5)c4cc3Cl)nc2c1 [Example 101, 5-Chloro-2-[6-chloro-1-(3-piperidin-4-yl-propyl)-1H-indol-5-yl]-1H-benzoimidazole] | 3330
16 | Cc1c(F)ccc2[nH]c(-c3ccc4c(c3)c(Cl)cn4CCCC3CCN(C)CC3)nc12 [Example 88, 2-{3-Chloro-1-[3-(1-methyl-piperidin-4-yl)-propyl]-1H-indol-5-yl}-5-fluoro-4-methyl-1H-benzoimidazole] | > 10000
17 | CN1CCC(CCCn2ccc3cc(-c4nc5c(F)cc(F)cc5[nH]4)c(Cl)cc32)CC1 [Example 48, 2-{6-Chloro-1-[3-(1-methyl-piperidin-4-yl)-propyl]-1H-indol-5-yl}-4,6-difluoro-1H-benzoimidazole] | 1030
18 | Cc1c(F)ccc2[nH]c(-c3ccc4ncn(CCCCC5CCN(C)CC5)c4c3)nc12 [Example 45, 5-Fluoro-4-methyl-3′-[4-(1-methyl-piperidin-4-yl)-butyl]-1H,3′H-[2,5′]bibenzoimidazolyl] | 1670
19 | Cc1c(-c2nc3c(C)c(F)ccc3[nH]2)ccc2c1CCN2CCCC1CCN(C)CC1 [Example 1, 5-Fluoro-4-methyl-2-{4-methyl-1-[3-(1-methyl-pieridin-4-yl)-proyl]-2,3-dihydro-1H-indol-5-yl}-1H-benzoimidazole] | 29

Row | SMILES | Ki [nM]
20 | Cc1ccc2[nH]c(-c3ccc4c(c3)ncn4CCCCC3CCNCC3)nc2c1C [Example 118] | 3000
21 | Cc1cccc2[nH]c(-c3cccc4c3ccn4CCCCC3CCN(C)CC3)nc12 [Example 23, 4-Methyl-2-{1-[4-(1-methyl-piperidin-4-yl)-butyl]-1H-indol-4-yl}-1H-benzoimidazole] | 98
22 | Cc1c(-c2nc3c(C)c(F)ccc3[nH]2)ccc2c1ccn2CCCC1CCN(C)CC1 [Example 7, 5-Fluoro-4-methyl-2-{4-methyl-1-[3-(1-methyl-piperidin-4-yl)-propyl]-1H-indol-5-yl}-1H-benzoimidazole] | 29
23 | Cc1c(Cl)ccc2[nH]c(-c3ccc4c(ncn4CCCC4CCN(C)CC4)c3C)nc12 [Example 54, 5-Chloro-4,4′-dimethyl-1′-[3-(1-methyl-piperidin-4-yl)-propyl]-1H ,1′H-[2,5′]bibenzoimidazolyl] | 1
24 | Cc1nc2ccc3nc(-c4cccc5c4c(Cl)cn5CCCCC4CCNCC4)[nH]c3c2s1 [Example 134, 7-[3-Chloro-1-(4-piperidin-4-yl-butyl)-1H-indol-4-yl]-2-methyl-8H-imidazo[4′,5′:3,4]benzo[1,2-d]thiazole] | > 10000
25 | Cc1nc(-c2ccc3c(ncn3CCCC3CCN(C)CC3)c2C)[nH]c1-c1cc(Cl)cc(Cl)c1 [Example 83, 5-[5-(3,5-Dichloro-phenyl)-4-methyl-1H-imidazol-2-yl]-4-methyl-1-[3-(1-methyl-piperidin-4-yl)-propyl]-1H-benzoimidazole] | 0.3
26 | CC(C)(C)c1ccc2[nH]c(-c3ccc4c(c3)c(Cl)cn4CCCC3CCNCC3)nc2c1 [Example 34, 5-tert-Butyl-2-[3-chloro-1-(3-piperidin-4-yl-propyl)-1H-indol-5-yl]-1H-benzoimidazole] | 2000
27 | Cc1cccc2[nH]c(-c3ccc4c(c3)CCN4CCCC3CCN(C)CC3)nc12 [Example 98, 4-Methyl-2-{1-[3-(1-methyl-piperidin-4-yl)-propyl]-2,3-dihydro-1H-indol-5-yl}-1H-benzoimidazole] | 157
28 | Cc1c(-c2nc(C(F)(F)F)c(-c3ccccc3)[nH]2)ccc2c1ncn2CCCC1CCN(C)CC1 [Example 84, 4-Methyl-1-[3-(1-methyl-piperidin-4-yl)-propyl]-5-(5-phenyl-4-trifluoromethyl-1H-imidazol-2-yl)-1H-benzoimidazole] | 8
29 | O=C(c1ccccc1)c1ccc2[nH]c(-c3cccc4c3c(Cl)cn4CCCCC3CCNCC3)nc2c1 [Example 129, {2-[3-Chloro-1-(4-piperidin-4-yl-butyl)-1H-indol-4-yl]-1H-benzoimidazol-5-yl}-phenyl-methanone] | 2000
30 | Cc1cc(Cl)cc2[nH]c(-c3cccc4c3ccn4CCCCC3CCNCC3)nc12 [Example 104, 6-Chloro-4-methyl-2-[1-(4-piperidin-4-yl-butyl)-1H-indol-4-yl]-1H-benzoimidazole] | 2330
31 | Cc1c(-c2nc3cc(Cl)ccc3[nH]2)ccc2c1ccn2CCCC1CCN(C)CC1 [Example 10, 5-Chloro-2-{4-methyl-1-[3-(1-methyl-piperidin-4-yl)-propyl]-1H-indol-5-yl}-1H-benzoimidazole] | 19
32 | Cc1ccc2[nH]c(-c3ccc4c(ncn4CCCC4CCNCC4)c3C)nc2c1C [Example 138, 4,5,4′-Trimethyl-1′-(3-piperidin-4-yl-propyl)-1H,1′H-[2,5′]bibenzoimidazolyl] | 429
33 | Cc1c(Cl)ccc2[nH]c(-c3ccc4c(ncn4CCCC4CCNCC4)c3C)nc12 [Example 113, 5-Chloro-4,4′-dimethyl-1′-(3-piperidin-4-yl-propyl)-1H,1′H-[2,5′]bibenzoimidazolyl] | 165
34 | Cc1c(F)ccc2[nH]c(-c3ccc4c(c3)CCN4CCCC3CCN(C)CC3)nc12 [Example 96, 5-Fluoro-4-methyl-2-{1-[3-(1-methyl-piperidin-4-yl)-propyl]-2,3-dihydro-1H-indol-5-yl}-1H-benzoimidazole] | 103
35 | Cc1cc(C)c2nc(-c3ccc4c(c3Cl)CCN4CCCC3CCN(C)CC3)[nH]c2c1 [Example 3, 2-{4-Chloro-1-[3-(1-methyl-piperidin-4-yl)-propyl]-2,3-dihydro-1H-indol-5-yl}-4,6-dimethyl-1H-benzoimidazole] | 33
36 | Cc1cc(Cl)cc2[nH]c(-c3ccc4c(c3)c(Cl)cn4CCCC3CCN(C)CC3)nc12 [Example 29, 6-Chloro-2-{3-chloro-1-[3-(1-methyl-piperidin-4-yl)-propyl]-1H-indol-5-yl}-4-methyl-1H-benzoimidazole] | 1670
37 | Cc1cccc2[nH]c(-c3ccc4ncn(CCCCC5CCNCC5)c4c3)nc12 [Example 122, 4-Methyl-3′-(4-piperidin-4-yl-butyl)-1H,3′H-[2,5′]bibenzoimidazolyl] | 1670
38 | CN1CCC(CCCCn2ccc3c(-c4nc5cc(C(C)(C)C)ccc5[nH]4)cccc32)CC1 [Example 24, 5-tert-Butyl-2-{1-[4-(1-methyl-piperidin-4-yl)-butyl]-1H-indol-4-yl}-1H-benzoimidazole] | 40
